The values below come from patent US7662750B2, “Protein-protein interaction antagonist screening libraries based upon 1,4-disubstituted naphthalenes and related scaffolds” (The Research Foundation of State University of New York, priority 2003, dated 2010).

For one test, the target named is T1, HOXA1-PBX1/DNA (Mus musculus, UniProt P41778).
T1 construct: the mouse/human 233-319 PBX1 protein
T1 sequence (P41778 233-319): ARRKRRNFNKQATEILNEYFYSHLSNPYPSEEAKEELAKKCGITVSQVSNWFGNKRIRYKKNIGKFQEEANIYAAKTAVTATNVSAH
Briefly: EMSA, formation of HOXA1-PBX1/DNA ternary complex. Type of test: binding. The settings on record: for Selectivity for HOXA1-PBX1/DNA ternary complex relative to the other complexes tested: versus PBX1/DNA, BRN1/DNA, BRN2/DNA. A general note: In EMSA bound probe runs differently from free probe, usually more slowly.

In a further test the target is T2, BRN2/DNA (Mus musculus, UniProt P31360).
T2 construct: using nuclear extracts from RA treated P19 cells; endogenous in cells; host or cells: RA-treated P19 cells, nuclear extract
Kind of test: EMSA, BRN2/DNA complex (nuclear extracts from RA treated P19 cells). Type of test: binding. The settings on record: EMSA with BRN2 recognition element probe. Here is the method: (§1) The selectivity of individual members of the library for the HOXA1-PBX1/DNA target, as well as the ability of some analogs to cross over to other transcription factor targets was evaluated by testing them in parallel against the BRN1 & BRN2 transcription factors. BRN1 and BRN2 are members of mammalian class III POU transcription factor family and are expressed in the developing embryonic brain (McEvilly et al., Science 295:1528 (2002), which is hereby incorporated by reference in its entirety). POU domain class transciption factors contain, in addition to the POU domain, a homeodomain helix-turn-helix class DNA binding motif similar to that found in the HOX and PBX class transcription factors (Josephson et al., Development 125:3087 (1998); Hara et al., PNAS 89(8):3280 (1992), which are hereby incorporated by reference in their entirety). EMSAs were performed with BRN1 & BRN2 exactly as was done with HOXA1-PBX1 except that a sequence recognition element known to bind BRN1/BRN2 was used as the probe (Pruitt et al., Gene Expression Patterns 4(6):671 (2004), which is hereby incorporated by reference in its entirety).

For the next test, the target named is T3, BRN1/DNA (Mus musculus, UniProt P31361).
T3 construct: using nuclear extracts from RA treated P19 cells; endogenous in cells; host or cells: RA-treated P19 cells, nuclear extract
T3 sequence (P31361 1-497): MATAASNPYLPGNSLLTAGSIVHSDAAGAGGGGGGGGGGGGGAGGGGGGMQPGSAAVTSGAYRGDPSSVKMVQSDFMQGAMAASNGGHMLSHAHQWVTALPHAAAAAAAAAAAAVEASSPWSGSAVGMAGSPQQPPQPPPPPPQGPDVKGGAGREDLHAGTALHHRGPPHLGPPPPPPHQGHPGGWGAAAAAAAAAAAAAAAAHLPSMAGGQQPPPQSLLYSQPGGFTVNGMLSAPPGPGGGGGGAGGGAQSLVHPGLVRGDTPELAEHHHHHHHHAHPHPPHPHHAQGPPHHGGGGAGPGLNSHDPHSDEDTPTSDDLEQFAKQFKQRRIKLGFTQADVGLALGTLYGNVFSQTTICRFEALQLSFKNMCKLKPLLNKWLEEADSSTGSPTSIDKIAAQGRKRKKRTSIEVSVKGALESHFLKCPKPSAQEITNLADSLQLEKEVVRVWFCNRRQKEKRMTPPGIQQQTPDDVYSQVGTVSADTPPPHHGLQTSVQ
Briefly: EMSA, BRN1/DNA complex (nuclear extracts from RA treated P19 cells). Type of test: binding. The settings on record: EMSA with BRN1 recognition element probe. The method, then: as §1

The next test deals with T4, PBX1/DNA (Mus musculus, UniProt P41778).
T4 construct: the mouse/human 233-319 PBX1 protein
T4 sequence (P41778 233-319): T1 sequence (P41778 233-319)
Kind of test: EMSA, formation of PBX1/DNA binary complex (FIG. 1). Type of test: binding. The settings on record: for Inhibition of formation of the PBX1/DNA binary complex: FIG. 1. The text has this: Antagonist 31 differs from compound 15 by replacing the small cyclopropyl R1 with the larger 4-hydroxyphenyl group. […] On the other hand, both antagonists can bind in the hydrophobic pocket thereby preventing HOXA1 from binding to the binary complex. Upon closer evaluation of the compound 31 dose-response of the binary PBX/DNA band intensity relative to the ternary HOXA1-PBX/DNA band intensity, it was noted that the binary PBX/DNA band initially “increased” in intensity at low compound 31 concentrations. […] As the concentration of compound 31 is further increased, the binary PBX/DNA complex formation is inhibited enough to overcome the release of this binary complex from the ternary complex and, therefore, the binary band intensity begins to decrease.

The target of test [1] is T5, HOX-PBX1 cooperative DNA binding (Homo sapiens, UniProt P40424).
T5 sequence (P40424 1-430): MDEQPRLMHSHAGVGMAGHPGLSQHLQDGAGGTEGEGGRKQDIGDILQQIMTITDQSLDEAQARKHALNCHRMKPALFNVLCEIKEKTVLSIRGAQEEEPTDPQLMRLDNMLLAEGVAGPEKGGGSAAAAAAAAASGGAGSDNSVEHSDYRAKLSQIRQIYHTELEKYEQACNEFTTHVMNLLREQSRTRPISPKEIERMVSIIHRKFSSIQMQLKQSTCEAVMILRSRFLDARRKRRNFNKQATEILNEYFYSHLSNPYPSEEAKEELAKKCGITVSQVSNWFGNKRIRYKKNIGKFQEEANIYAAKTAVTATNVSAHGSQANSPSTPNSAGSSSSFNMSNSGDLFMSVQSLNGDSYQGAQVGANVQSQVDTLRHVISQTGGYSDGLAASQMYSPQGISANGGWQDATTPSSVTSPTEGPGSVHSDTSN
As to conditions: literature value (Knoepfler et al. 1995); read-out: IC50 for blocking cooperative HOX-PBX DNA binding; cited from earlier work.

The mark [2] stands for this setting: Table 1, EMSA, averaged densitometric analysis of multiple gels.
The mark [3] stands for this setting: Table 3, tricyclo[6.2.2.0^2,7]dodeca-2(7),3,5-trienes.
Where [4] appears, read: Table 2, 5,6,7,8-tetrahydro-naphthalenes.

T2 sequence (P31360 whole entry): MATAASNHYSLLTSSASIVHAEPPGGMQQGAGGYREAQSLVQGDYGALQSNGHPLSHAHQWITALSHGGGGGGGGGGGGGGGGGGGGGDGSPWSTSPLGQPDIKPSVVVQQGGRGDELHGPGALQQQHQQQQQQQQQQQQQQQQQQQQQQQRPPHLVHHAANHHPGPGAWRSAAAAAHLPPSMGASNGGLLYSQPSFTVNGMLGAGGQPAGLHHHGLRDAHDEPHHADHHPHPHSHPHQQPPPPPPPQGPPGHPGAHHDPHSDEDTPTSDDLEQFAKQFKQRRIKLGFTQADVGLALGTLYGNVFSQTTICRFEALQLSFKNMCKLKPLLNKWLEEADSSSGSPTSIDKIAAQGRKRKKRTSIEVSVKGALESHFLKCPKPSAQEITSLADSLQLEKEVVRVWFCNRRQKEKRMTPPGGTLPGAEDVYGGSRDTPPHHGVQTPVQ

In general, IC50 refers to the midpoint of a concentration-inhibition curve. On HOXA1-PBX1/DNA (setting [2]), `C#CCNC(=O)COc1ccc(C(=O)Nc2cccc(F)c2)c2ccccc12` [Compound 16] gave an IC50 of 331 µM.
Same read-out and setting: to `COc1ccccc1NC(=O)COc1ccc(C(=O)Nc2cccc(F)c2)c2ccccc12` [Compound 27] belongs 718 µM.
Regarding `O=C(COc1ccc(C(=O)Nc2cccc(F)c2)c2c1C1CCC2CC1)NCC(F)(F)F` [Compound 63, 6-[(2,2,2-Trifluoro-ethylcarbamoyl)-methoxy]-tricyclo[6.2.2.0^2,7]dodeca-2,4,6-triene-3-carboxylic Acid (3-fluoro-phenyl)-amide], the IC50 on HOXA1-PBX1/DNA (setting [3]) is 258 µM.
For `O=C(COc1ccc(C(=O)Nc2cccc(F)c2)c2ccccc12)NC1CC1` [Compound 15], the IC50 against HOXA1-PBX1/DNA (setting [2]) was 173 µM; at BRN2/DNA it was more than 10000 µM; on BRN1/DNA, 810 µM. For the same compound, at HOXA1-PBX1/DNA, the “Selectivity for HOXA1-PBX1/DNA ternary complex relative to the other complexes tested” value is given as “selective”. Also, the “Inhibition of formation of the PBX1/DNA binary complex” value on PBX1/DNA is “ternary complex only”.
With `O=C(COc1ccc(C(=O)Nc2cccc(F)c2)c2ccccc12)Nc1ccc(O)cc1` [Compound 31], the half-maximal inhibitory concentration (IC50) against HOXA1-PBX1/DNA (setting [2]) was found to be 65 µM; at BRN2/DNA, 138 µM; against BRN1/DNA, 124 µM. Further, the “Selectivity for HOXA1-PBX1/DNA ternary complex relative to the other complexes tested” value at HOXA1-PBX1/DNA is on record as “some selectivity”. The “Inhibition of formation of the PBX1/DNA binary complex” value on PBX1/DNA is reported as “inhibited”. The “Binary PBX/DNA band intensity at low compound concentrations” value on PBX1/DNA (dose-response, low concentrations) was “increased”.
Turning to `O=C(COc1ccc(C(=O)Nc2cccc(F)c2)c2c1C1CCC2CC1)Nc1ccc(O)cc1` [Compound 62], inhibition against HOXA1-PBX1/DNA (setting [3]) was half-maximal at 196 µM (IC50).
In turn, `COc1ccc(NC(=O)COc2ccc(C(=O)Nc3cccc(F)c3)c3ccccc23)cc1OC` [Compound 34] gave an IC50 against HOXA1-PBX1/DNA (setting [2]) of 464 µM.
At HOXA1-PBX1/DNA (setting [2]), `COc1ccc(NC(=O)COc2ccc(C(=O)Nc3cccc(F)c3)c3ccccc23)cc1` [Compound 29] returned an IC50 of 161 µM.
On the same count and under the same terms, to `CCCNC(=O)COc1ccc(C(=O)Nc2cccc(F)c2)c2ccccc12` [Compound 11] belongs 278 µM.
In turn, `O=C(COc1ccc(C(=O)Nc2cccc(F)c2)c2c1C1CCC2CC1)NC1CC1` [Compound 61] had an IC50 against HOXA1-PBX1/DNA (setting [3]) of 562 µM.
Compound `O=C(COc1ccc(C(=O)Nc2cccc(F)c2)c2c1CCCC2)Nc1ccc(O)cc1` [Compound 50] came in with an IC50 on HOXA1-PBX1/DNA (setting [4]) of 96 µM.
The same measure, in the same setting: to `O=C(COc1ccc(C(=O)Nc2cccc(F)c2)c2c1CCCC2)NC1CC1` [Compound 48] belongs 66 µM.
Take `O=C(COc1ccc(C(=O)Nc2cccc(F)c2)c2ccccc12)Nc1ccc(F)cc1` [Compound 26]: the IC50 on HOXA1-PBX1/DNA (setting [2]) is 293 µM.
In turn, `O=C(COc1ccc(C(=O)Nc2cccc(F)c2)c2ccccc12)Nc1ccccc1` [Compound 23] registered an IC50 against HOXA1-PBX1/DNA (setting [2]) of 254 µM.
The same measure, in the same setting: the same measure for `CC(C)CNC(=O)COc1ccc(C(=O)Nc2cccc(F)c2)c2ccccc12` [Compound 13]: 298 µM; for `NC(=O)COc1ccc(C(=O)Nc2cccc(F)c2)c2ccccc12` [Compound 7]: 272 µM.
As for QPQIYPWMRKLH, the IC50 in test [1] was 100 µM.
Consider `CC(C)NC(=O)COc1ccc(C(=O)Nc2cccc(F)c2)c2ccccc12` [Compound 12], for which it took 272 µM to reach half-maximal inhibition at HOXA1-PBX1/DNA (setting [2]) (IC50).
`O=C(COc1ccc(C(=O)Nc2cccc(F)c2)c2c1CCCC2)NCC(F)(F)F` [Compound 49] displayed an IC50 against HOXA1-PBX1/DNA (setting [4]) of 84 µM.
As for `O=C(COc1ccc(C(=O)Nc2cccc(F)c2)c2ccccc12)Nc1cccc(O)c1` [Compound 30], the IC50 came out at 86 µM at HOXA1-PBX1/DNA (setting [2]), 148 µM against BRN2/DNA and 142 µM against BRN1/DNA.
With `O=C(COc1ccc(C(=O)Nc2cccc(F)c2)c2ccccc12)NCC(F)(F)F` [Compound 17], the concentration for half-maximal inhibition (IC50) against HOXA1-PBX1/DNA (setting [2]) was 111 µM; against BRN2/DNA it was 204 µM; at BRN1/DNA, 162 µM.
Take `COc1cccc(NC(=O)COc2ccc(C(=O)Nc3cccc(F)c3)c3ccccc23)c1` [Compound 28]: at HOXA1-PBX1/DNA (setting [2]), the IC50 stood at 580 µM.
